Activity calls are given as the source filed them.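 How the source made its calls: active means at least one rat sex group has a carcinogenic potency value and tumor site recorded; inconclusive means only rat studies were judged inadequate by the national testing program; inactive means no potency or tumor site, with negative rat experiments.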
System: rat chronic carcinogenicity bioassay, TD50
Assay: DSSTox (CPDBAS) Carcinogenic Potency Database Summary Rat Bioassay Results
Settings: for Potency: hits give low values; for outcome: TD50_Rat_Note: no positive results
Procedure, shortened: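 Chronic long-term rat cancer bioassays from literature and NCI/NTP, taking the most positive result per sex. TD50 in mmol converted to a 1–100 Activity Score from log10(1/TD50). Mixtures lacking TD50 scored 50.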

[1] = TargetSites_Rat_Female: no positive results
[2] = TD50_Rat_Note: TD50 is harmonic mean of more than one positive test, TargetSites_Rat_Female: nasal cavity
[3] = TD50_Rat_Note: TD50 is harmonic mean of more than one positive test, TargetSites_Rat_Female: stomach

SMILES: O=NN1CCCCC1c1cccnc1 (configuration not stated)
- Potency (TD50_Rat_Note: TD50 is harmonic mean of more than one positive test, TargetSites_Rat_Female: esophagus): 11.9 mg/kg/day

SMILES: O=C(Nc1ccc([N+](=O)[O-])cc1Cl)c1cc(Cl)ccc1O
- outcome [1]: inactive; no positive results

SMILES: CC(C)C[C@H]1C(=O)N2CCC[C@H]2[C@]2(O)O[C@](NC(=O)[C@@H]3C=C4c5cccc6[nH]c(Br)c(c56)C[C@H]4N(C)C3)(C(C)C)C(=O)N12
- Potency (TargetSites_Rat_Female: uterus): 33.7 mg/kg/day

SMILES: Cc1ccccc1N
- Potency (TD50_Rat_Note: TD50 is harmonic mean of more than one positive test, TargetSites_Rat_Female: bone, mammary gland, urinary bladder, vascular system): 43.6 mg/kg/day

SMILES: CCOC(=O)/C=C\C(=O)OCC
- outcome: inactive; no positive results

SMILES: CCCN(CCC)c1c([N+](=O)[O-])cc(C(F)(F)F)cc1[N+](=O)[O-]
- outcome [1]: inactive; no positive results

SMILES: Cc1[nH]cnc1CSCCN=C(NC#N)N(C)N=O
- outcome [1]: inactive; no positive results

SMILES: O=C1CCCO1
- outcome [1]: inactive; no positive results

SMILES: CCN(C#N)N=O
- Potency [2]: 3.68 mg/kg/day

SMILES: O=C(C1CCCCC1)N1CC(=O)N2CCc3ccccc3C2C1 (configuration not stated)
- outcome [1]: inactive; no positive results

SMILES: NS(=O)(=O)c1cc(C(=O)O)c(NCc2ccco2)cc1Cl
- outcome [1]: inactive; no positive results

SMILES: CN(N=O)c1cccnc1
- outcome [1]: inactive

SMILES: ClC/C=C/CCl
- Potency [2]: 0.297 mg/kg/day

SMILES: OCC(O)CO
- outcome (TargetSites_Rat_BothSexes: no positive results): inactive

SMILES: CC1=CC(=C(c2ccc(N)cc2)c2ccc(N)cc2)C=CC1=N
- outcome [1]: inactive; no positive results

SMILES: CC(=O)N(C(C)=O)c1cccc2c1Cc1ccccc1-2
- Potency (TargetSites_Rat_Female: ear Zymbals gland, mammary gland): 19 mg/kg/day

SMILES: C=CC(=O)OCC
- Potency [3]: 119 mg/kg/day

SMILES: CCOP(=S)(OCC)Oc1cc(C)nc(C(C)C)n1
- outcome [1]: inactive; no positive results

SMILES: Cc1ccc2c(c1N)C(=O)c1ccccc1C2=O
- Potency (TD50_Rat_Note: TD50 is harmonic mean of more than one positive test, TargetSites_Rat_Female: liver): 59.2 mg/kg/day

SMILES: Cc1cccc(C)c1NC1=NCCCS1
- outcome: inactive; no positive results

SMILES: NC(=O)N/N=C/c1ccc([N+](=O)[O-])o1
- Potency (TD50_Rat_Note: TD50 is harmonic mean of more than one positive test, harmonic mean of TD50 includes a value for upper 99% confidence li, TargetSites_Rat_Female: mammary gland): 6.98 mg/kg/day

SMILES: Cc1cnc2ccc3c(nc(N)n3C)c2n1
- Potency (TD50_Rat_Note: TD50 is harmonic mean of more than one positive test, TargetSites_Rat_Female: clitoral gland, ear Zymbals gland, liver): 1.66 mg/kg/day

SMILES: Cc1cc(O)c2c(c1)C(=O)c1cc(O)cc(O)c1C2=O
- outcome [1]: inactive; no positive results

SMILES: Clc1cccc(-c2cccc(Cl)c2)c1
- Potency (TD50_Rat_Note: no positive results are statistically significant, TD50_Rat_mmol was not calculated for this mixture, but Activiity Scor): 157 mg/kg/day

SMILES: Cc1cc(=O)n(-c2ccccc2)n1C
- Potency: 1230 mg/kg/day

SMILES: CN(C#N)N=O
- Potency (TargetSites_Rat_Female: stomach): 0.48 mg/kg/day

SMILES: CC(N)=S
- Potency: 11.5 mg/kg/day

SMILES: O=C1CCc2ccccc2O1
- Potency [1]: 2970 mg/kg/day

SMILES: Nc1cc(S(=O)(=O)[O-])cc2cc(S(=O)(=O)[O-])c(N=Nc3ccc(-c4ccc(N=Nc5c(S(=O)(=O)[O-])cc6cc(S(=O)(=O)[O-])cc(N)c6c5O)c(O)c4)cc3O)c(O)c12.[Cu].[Cu].[Na+].[Na+].[Na+].[Na+]
- Potency [1]: 1570 mg/kg/day

SMILES: BrCCBr
- Potency (TD50_Rat_Note: TD50 is harmonic mean of more than one positive test, TargetSites_Rat_Female: liver, lung, mammary gland, nasal cavity, pituitary gland, stomach, vascular system): 1.52 mg/kg/day

SMILES: NC(N)=Nc1nc(CSCCNc2nsnc2N)cs1
- Potency [3]: 4990 mg/kg/day

SMILES: Nc1ccc2c(c1)C(=O)c1ccccc1C2=O
- Potency [1]: 101 mg/kg/day

SMILES: OCC1CO1 (configuration not stated)
- Potency (TD50_Rat_Note: TD50 is harmonic mean of more than one positive test, TargetSites_Rat_Female: clitoral gland, hematopoietic system, mammary gland, nervous system, oral cavity, stomach, thyroid gland): 4.28 mg/kg/day

SMILES: O=NN1CCOCC1
- Potency (TD50_Rat_Note: TD50 is harmonic mean of more than one positive test, TargetSites_Rat_Female: liver, vascular system): 0.109 mg/kg/day

SMILES: C=CCOC(=O)c1ccccc1C(=O)OCC=C
- outcome [1]: inactive; no positive results

SMILES: CNC(=S)N(C)C
- Potency (TargetSites_Rat_Female: thyroid gland): 25.8 mg/kg/day

SMILES: O=NN1CCC[C@H]1C(=O)O
- outcome [1]: inactive; no positive results

SMILES: CCn1cc(C(=O)O)c(=O)c2cc3c(cc21)OCO3
- Potency [1]: 167 mg/kg/day

SMILES: COC(=O)C1=C(C)NC(C)=C(C(=O)OCCN2CCN(C(c3ccccc3)c3ccccc3)CC2)C1c1cccc([N+](=O)[O-])c1 (configuration not stated)
- outcome [1]: inactive; no positive results

SMILES: CCC1CO1 (configuration not stated)
- Potency [1]: 220 mg/kg/day

SMILES: C/C(=C(\CCOC(=O)c1ccccc1)SC(=O)c1ccccc1)N(C=O)Cc1cnc(C)nc1N
- outcome [1]: inactive; no positive results

SMILES: c1cc(OCC2CO2)cc(OCC2CO2)c1 (configuration not stated)
- Potency [3]: 3.78 mg/kg/day

SMILES: CCCCCC
- outcome [1]: inactive; no positive results

SMILES: Cl
- outcome: inactive; no positive results
- outcome [1]: inactive; no positive results

SMILES: [O]=[Cr](=[O])([OH])[O][Cr](=[O])(=[O])[OH]
- Potency: 4.64 mg/kg/day

SMILES: O=C(O)CNCC(=O)O
- outcome [1]: inactive; no positive results

SMILES: Cc1nnc2n1-c1sc(CCc3ccc(CC(C)C)cc3)cc1C(c1ccccc1Cl)=NC2C (configuration not stated)
- outcome [1]: inactive; no positive results

SMILES: CN(CCc1ccccc1)N=O
- Potency (TD50_Rat_Note: TD50 is harmonic mean of more than one positive test): 0.00998 mg/kg/day

SMILES: FC(Cl)C(F)(F)F (configuration not stated)
- outcome [1]: inactive

SMILES: NC(=S)Nc1ccccc1
- outcome [1]: inactive; no positive results

SMILES: O.[Cd+2].[Cl-].[Cl-]
- outcome [1]: inactive; no positive results

Source: PubChem BioAssay AID1208 (EPA DSSTox, 2008)
